The series in a line: Spectroscopic measurements (absorption, emission, quantum yield, extinction coefficient). Format: physicochemical. As to conditions: BDNCA library; for Abs: absorption; for Flu-Abs: difference emission minus absorption; for ε: extinction coefficient, in M-1 cm-1 (unit assumed); for Flu: fluorescence emission.

The structures appear in SMILES notation.

Data on 22 compounds can be found in patent US9423396B2, “Bodipy structure fluorescence probes for diverse biological applications” (National University of Singapore, priority 2011, dated 2016).

As for `Cc1ccc(/C=C/c2cc(C)c3n2[B-](F)(F)[N+]2=CC=CC2=C3c2ccc(NC(=O)CCl)cc2)cc1` [BDNCA-208], the “Qunt. Yield” value came out at 0.12, the Abs came to 558 nm, the Flu-Abs stood at 23 and the ε is 64,805. The Flu is listed as 581.
`COc1cc(/C=C/C2=[N+]3C(=C(c4ccc(NC(=O)CCl)cc4)c4cccn4[B-]3(F)F)C(C)=C2)cc(OC)c1` [BDNCA-209]: the “Qunt. Yield” value is 0.12, the Abs was 556 nm, the Flu-Abs was found to be 20 and the ε is 62,334. Besides, the Flu worked out at 576.
In the case of `COC(=O)c1ccc(/C=C/C2=[N+]3C(=C(c4ccc(NC(=O)CCl)cc4)c4cccn4[B-]3(F)F)C(C)=C2)cc1` [BDNCA-219], the “Qunt. Yield” value came out at 0.16, the Abs is 560 nm, the Flu-Abs turned out to be 21 and the ε was 73,043. For the same compound, the Flu is listed as 581.
On to `COc1cc(Cl)c(/C=C/C2=[N+]3C(=C(c4ccc(NC(=O)CCl)cc4)c4cccn4[B-]3(F)F)C(C)=C2)c(Cl)c1O` [BDNCA-220], for which the “Qunt. Yield” value is 0.01, the Abs amounted to 559 nm, the Flu-Abs is on record as 24 and the ε is 40,915. Also, the Flu stood at 583.
On to `COc1cc(/C=C/C2=[N+]3C(=C(c4ccc(NC(=O)CCl)cc4)c4cccn4[B-]3(F)F)C(C)=C2)c(OCc2ccccc2)cc1OC` [BDNCA-223], for which the “Qunt. Yield” value is “weak”, the Abs turned out to be 583 nm, the ε is recorded as 59,863 and the Flu entry is “weak”.
Turning to `COc1cc(Br)cc(/C=C/C2=[N+]3C(=C(c4ccc(NC(=O)CCl)cc4)c4cccn4[B-]3(F)F)C(C)=C2)c1OC` [BDNCA-228], the “Qunt. Yield” value amounted to 0.13, the Abs was 558 nm, the Flu-Abs came out at 19 and the ε is given as 63,707. This compound showed a Flu of 577.
Turning to `CC1=CC(/C=C/c2cccc3c2OCO3)=[N+]2C1=C(c1ccc(NC(=O)CCl)cc1)c1cccn1[B-]2(F)F` [BDNCA-231], the “Qunt. Yield” value amounted to 0.04, the Abs turned out to be 559 nm, the Flu-Abs was determined as 19 and the ε is listed as 33,227. For the same compound, the Flu was 578.
On to `Cc1ccc(/C=C/c2cc(C)c3n2[B-](F)(F)[N+]2=CC=CC2=C3c2ccc(NC(=O)CCl)cc2)s1` [BDNCA-236], for which the “Qunt. Yield” value stood at 0.11, the Abs stood at 577 nm, the Flu-Abs came to 31 and the ε was 72,220. The same compound had a Flu of 608.
Consider `CC1=CC(/C=C/c2ccc(I)cc2)=[N+]2C1=C(c1ccc(NC(=O)CCl)cc1)c1cccn1[B-]2(F)F` [BDNCA-237], for which the “Qunt. Yield” value worked out at 0.13, the Abs is 560 nm, the Flu-Abs is 19 and the ε was 70,572. Further, the Flu came out at 579.
With `Cc1cc(/C=C/c2ccc(CO)o2)n2c1C(c1ccc(NC(=O)CCl)cc1)=C1C=CC=[N+]1[B-]2(F)F` [BDNCA-238], the “Qunt. Yield” value is recorded as 0.05, the Abs was determined as 575 nm, the Flu-Abs worked out at 33 and the ε was 40,366. The same compound yielded a Flu of 608.
On to `Cc1cc(/C=C/c2ccccc2OC(F)F)n2c1C(c1ccc(NC(=O)CCl)cc1)=C1C=CC=[N+]1[B-]2(F)F` [BDNCA-240], for which the “Qunt. Yield” value is given as 0.08, the Abs stood at 554 nm, the Flu-Abs is 19 and the ε is listed as 47,506. The compound also registered a Flu of 573.
Turning to `COc1c(Br)cc(Br)cc1/C=C/C1=[N+]2C(=C(c3ccc(NC(=O)CCl)cc3)c3cccn3[B-]2(F)F)C(C)=C1` [BDNCA-241], the “Qunt. Yield” value is reported as 0.09, the Abs is 558 nm, the Flu-Abs is 20 and the ε is on record as 48,879. Besides, the Flu stood at 578.
For `COc1cc(/C=C/C2=[N+]3C(=C(c4ccc(NC(=O)CCl)cc4)c4cccn4[B-]3(F)F)C(C)=C2)cc(I)c1OC` [BDNCA-242], the “Qunt. Yield” value is 0.14, the Abs stood at 561 nm, the Flu-Abs came to 25 and the ε is on record as 70,847. The Flu is listed as 586.
Taken in the same sequence, the figures for `CC1=CC(/C=C/c2c(Cl)ccc(C)c2F)=[N+]2C1=C(c1ccc(NC(=O)CCl)cc1)c1cccn1[B-]2(F)F` [BDNCA-246] were 0.09, 554 nm, 19, 43,387 and 573.
Consider `CC1=CC(/C=C/c2ccc(C)c(F)c2)=[N+]2C1=C(c1ccc(NC(=O)CCl)cc1)c1cccn1[B-]2(F)F` [BDNCA-249], for which the “Qunt. Yield” value turned out to be 0.12, the Abs was 556 nm, the Flu-Abs came out at 21 and the ε is 71,945. Moreover, the Flu is listed as 577.
The corresponding values for `COc1ccc([N+](=O)[O-])cc1/C=C/C1=[N+]2C(=C(c3ccc(NC(=O)CCl)cc3)c3cccn3[B-]2(F)F)C(C)=C1` [BDNCA-250] are 0.12, 559 nm, 22, 53,547 and 581.
Turning to `CCc1ccccc1/C=C/c1cc(C)c2n1[B-](F)(F)[N+]1=CC=CC1=C2c1ccc(NC(=O)CCl)cc1` [BDNCA-251], the “Qunt. Yield” value was 0.11, the Abs is 555 nm, the Flu-Abs is listed as 23 and the ε is 54,096. Also, the Flu was 578.
As for `CCc1ccc(/C=C/C2=[N+]3C(=C(c4ccc(NC(=O)CCl)cc4)c4cccn4[B-]3(F)F)C(C)=C2)cc1[N+](=O)[O-]` [BDNCA-252], the “Qunt. Yield” value came to 0.08, the Abs worked out at 556 nm, the Flu-Abs stood at 20 and the ε is 57,666. Also, the Flu is listed as 576.
For the compound `COc1cccc(F)c1/C=C/C1=[N+]2C(=C(c3ccc(NC(=O)CCl)cc3)c3cccn3[B-]2(F)F)C(C)=C1` [BDNCA-254], the “Qunt. Yield” value came to 0.09, the Abs is 559 nm, the Flu-Abs was 22 and the ε is on record as 56,018. For the same compound, the Flu is reported as 581.
For `Cc1ccc(/C=C/c2cc(C)c3n2[B-](F)(F)[N+]2=CC=CC2=C3c2ccc(NC(=O)CCl)cc2)cc1[N+](=O)[O-]` [BDNCA-255], the “Qunt. Yield” value came out at 0.10, the Abs came out at 556 nm, the Flu-Abs is given as 19 and the ε is listed as 62,059. Further, the Flu is listed as 575.
Regarding `Cc1cc(/C=C/c2cccc(Br)c2O)n2c1C(c1ccc(NC(=O)CCl)cc1)=C1C=CC=[N+]1[B-]2(F)F` [BDNCA-256], the “Qunt. Yield” value was 0.04, the Abs was determined as 561 nm, the Flu-Abs was determined as 21 and the ε is 52,449. Further, the Flu came to 582.
The corresponding values for `COc1cc(/C=C/C2=[N+]3C(=C(c4ccc(NC(=O)CCl)cc4)c4cccn4[B-]3(F)F)C(C)=C2)cc(Br)c1OC` [BDNCA-259] are 0.11, 561 nm, 21, 49,428 and 582.
